Assay results published in PubChem BioAssay AID1963424 (Molecular Pharmacology Branch, DTP, NCI, 2024).
pIC50: −log10 of the molar value.

Test system: 327498-153-R-J2-PDC complex spheroid growth, % test/control
Assay: Anticancer human tumor 327498-153-R-J2-PDC patient-derived uterine carcinosarcoma cell line growth inhibition [Asc]
Settings: for pIC50: curve of first compound; for viability, T/C: stronger effect = lower value; active means viability on the fitted dose curve at most 10% of control; inactive means the rest
Summary of the method: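 Complex spheroids combining tumor cells with HUVEC endothelial cells and human MSCs, at 37 degrees C, 5% CO2; agents tested alone or combined, half-log dilutions from at or near clinical Cmax, or 10 microM if Cmax unknown.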
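Further: spheroids exposed to compound for 7 days after 3 days of growth.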
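Wherever viability, T/C is given: 100% = DMSO vehicle control wells.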

NC1CCC(NC2CC2c2ccccc2)CC1 (stereo not given) + CCN1C(C(=O)NC23CCC(C(=O)O)(CC2)CC3)C(c2cccc(Cl)c2F)C2(C(=O)Nc3cc(Cl)ccc32)C12CCCCC2
inactive: viability, T/C (second compound 0.03 µM, first compound 0.000316 µM) 103% | viability, T/C (second compound 0.03 µM, first compound 0.001 µM) 94.5% | viability, T/C (second compound 0.03 µM, first compound 0.00316 µM) 93.8% | viability, T/C (second compound 0.03 µM, first compound 0.01 µM) 92.4% | viability, T/C (second compound 0.03 µM, first compound 0.0316 µM) 103% | viability, T/C (second compound 0.03 µM, first compound 0.1 µM) 97.3% | viability, T/C (second compound 0.0949 µM, first compound 0.000316 µM) 84.3% | viability, T/C (second compound 0.0949 µM, first compound 0.001 µM) 84.4% | viability, T/C (second compound 0.0949 µM, first compound 0.00316 µM) 83.4% | viability, T/C (second compound 0.0949 µM, first compound 0.01 µM) 84.9% | viability, T/C (second compound 0.0949 µM, first compound 0.0316 µM) 83.9% | viability, T/C (second compound 0.0949 µM, first compound 0.1 µM) 87.4% | viability, T/C (second compound 0.3 µM, first compound 0.000316 µM) 53% | viability, T/C (second compound 0.3 µM, first compound 0.001 µM) 47.9% | viability, T/C (second compound 0.3 µM, first compound 0.00316 µM) 43.8% | viability, T/C (second compound 0.3 µM, first compound 0.01 µM) 39.1% | viability, T/C (second compound 0.3 µM, first compound 0.0316 µM) 49.8% | viability, T/C (second compound 0.3 µM, first compound 0.1 µM) 43.6% | viability, T/C (second compound 0.949 µM, first compound 0.000316 µM) 10.8% | viability, T/C (second compound 0.949 µM, first compound 0.001 µM) 12.7% | viability, T/C (second compound 0.949 µM, first compound 0.00316 µM) 15.8% | viability, T/C (second compound 0.949 µM, first compound 0.01 µM) 11.6% | viability, T/C (second compound 0.949 µM, first compound 0.0316 µM) 14.7% | viability, T/C (second compound 0.949 µM, first compound 0.1 µM) 16.5%
active: viability, T/C (second compound 3 µM, first compound 0.000316 µM) 4.55% | viability, T/C (second compound 3 µM, first compound 0.001 µM) 5.4% | viability, T/C (second compound 3 µM, first compound 0.00316 µM) 2.47% | viability, T/C (second compound 3 µM, first compound 0.01 µM) 7.42% | viability, T/C (second compound 3 µM, first compound 0.0316 µM) 5.29% | viability, T/C (second compound 3 µM, first compound 0.1 µM) 4.14%
< 7.00: pIC50 (second compound 0.03 µM) | pIC50 (second compound 0.0949 µM)
> 9.50: pIC50 (second compound 0.3 µM) | pIC50 (second compound 0.949 µM) | pIC50 (second compound 3 µM)

NC(=O)C(=Cn1cnc(-c2cc(C(F)(F)F)cc(C(F)(F)F)c2)n1)c1cncnc1 + CNC(C)C(=O)NC1CN(S(=O)(=O)c2cccc(S(=O)(=O)N3CCC4CCC(C(=O)NC(c5ccccc5)c5ccccc5)N4C(=O)C(NC(=O)C(C)NC)C3)c2)CCC2CCC(C(=O)NC(c3ccccc3)c3ccccc3)N2C1=O
7.39: pIC50 (second compound 0.1 µM) | pIC50 (second compound 0.316 µM)
7.40: pIC50 (second compound 0.0316 µM)
7.41: pIC50 (second compound 0.01 µM)
inactive: viability, T/C (second compound 0.01 µM, first compound 0.000949 µM) 93% | viability, T/C (second compound 0.01 µM, first compound 0.003 µM) 111% | viability, T/C (second compound 0.01 µM, first compound 0.00949 µM) 84.5% | viability, T/C (second compound 0.01 µM, first compound 0.03 µM) 63% | viability, T/C (second compound 0.01 µM, first compound 0.0949 µM) 12.1% | viability, T/C (second compound 0.0316 µM, first compound 0.000949 µM) 90.1% | viability, T/C (second compound 0.0316 µM, first compound 0.003 µM) 91.5% | viability, T/C (second compound 0.0316 µM, first compound 0.00949 µM) 88% | viability, T/C (second compound 0.0316 µM, first compound 0.03 µM) 63.8% | viability, T/C (second compound 0.1 µM, first compound 0.000949 µM) 92.8% | viability, T/C (second compound 0.1 µM, first compound 0.003 µM) 94.4% | viability, T/C (second compound 0.1 µM, first compound 0.00949 µM) 85.8% | viability, T/C (second compound 0.1 µM, first compound 0.03 µM) 65.4% | viability, T/C (second compound 0.1 µM, first compound 0.0949 µM) 9.53% | viability, T/C (second compound 0.316 µM, first compound 0.000949 µM) 91.9% | viability, T/C (second compound 0.316 µM, first compound 0.003 µM) 91.8% | viability, T/C (second compound 0.316 µM, first compound 0.00949 µM) 88.4% | viability, T/C (second compound 0.316 µM, first compound 0.03 µM) 65% | viability, T/C (second compound 1 µM, first compound 0.000949 µM) 102% | viability, T/C (second compound 1 µM, first compound 0.003 µM) 92.1% | viability, T/C (second compound 1 µM, first compound 0.00949 µM) 82.2% | viability, T/C (second compound 1 µM, first compound 0.03 µM) 75.2%
7.34: pIC50 (second compound 1 µM)
active: viability, T/C (second compound 0.01 µM, first compound 0.3 µM) 1.73% | viability, T/C (second compound 0.0316 µM, first compound 0.0949 µM) 9.05% | viability, T/C (second compound 0.0316 µM, first compound 0.3 µM) 1.71% | viability, T/C (second compound 0.1 µM, first compound 0.3 µM) 1.32% | viability, T/C (second compound 0.316 µM, first compound 0.0949 µM) 9.52% | viability, T/C (second compound 0.316 µM, first compound 0.3 µM) 1.32% | viability, T/C (second compound 1 µM, first compound 0.0949 µM) 7.78% | viability, T/C (second compound 1 µM, first compound 0.3 µM) 1.13%
